Test results as given in ChEMBL document CHEMBL1201862, “PubChem BioAssay data set” (2004).
Active and inactive are the calls of the source.

Experiments:
Paired box protein Pax-8 = Paired box protein Pax-8 (Homo sapiens, UniProt Q06710); assay: inhibitors of PAX8-driven TPO luciferase reporter, dose response, RMG-I cells, cherry-pick (AID 687027); format: functional, cell-based;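 also: luciferase reporter driven by Pax8 target thyroperoxidase promoter measured by SteadyGlo luminescence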
[1] = A2780 ovarian cancer cell cytotoxicity, dose response, cytotoxicity control, plate reader, dry powder samples (AID 743046); format: functional, cell-based
[2] = NIH:OVCAR-3 ovarian cancer cell cytotoxicity, dose response, PAX8 inhibitor project, plate reader, dry powder samples (AID 743044); format: functional, cell-based
[3] = cytotoxicity in OVCAR8 ovarian cancer cells, dose response, PAX8 project, cell-based, plate reader, dry powder samples (AID 743197); format: functional; conditions: OVCAR-8
Protein RecA = target: T1, Protein RecA (Mycobacterium tuberculosis, UniProt P9WHJ3); assay: Fluorescence Cell-Free Homogeneous Dose Retest to Identify Inhibitors of RecA-Intein Splicing Activity. [Related pubchem assays (depositor defined):AID2097, AID2223, AID489010, AID492950]; format: functional
T1 sequence (P9WHJ3 whole entry): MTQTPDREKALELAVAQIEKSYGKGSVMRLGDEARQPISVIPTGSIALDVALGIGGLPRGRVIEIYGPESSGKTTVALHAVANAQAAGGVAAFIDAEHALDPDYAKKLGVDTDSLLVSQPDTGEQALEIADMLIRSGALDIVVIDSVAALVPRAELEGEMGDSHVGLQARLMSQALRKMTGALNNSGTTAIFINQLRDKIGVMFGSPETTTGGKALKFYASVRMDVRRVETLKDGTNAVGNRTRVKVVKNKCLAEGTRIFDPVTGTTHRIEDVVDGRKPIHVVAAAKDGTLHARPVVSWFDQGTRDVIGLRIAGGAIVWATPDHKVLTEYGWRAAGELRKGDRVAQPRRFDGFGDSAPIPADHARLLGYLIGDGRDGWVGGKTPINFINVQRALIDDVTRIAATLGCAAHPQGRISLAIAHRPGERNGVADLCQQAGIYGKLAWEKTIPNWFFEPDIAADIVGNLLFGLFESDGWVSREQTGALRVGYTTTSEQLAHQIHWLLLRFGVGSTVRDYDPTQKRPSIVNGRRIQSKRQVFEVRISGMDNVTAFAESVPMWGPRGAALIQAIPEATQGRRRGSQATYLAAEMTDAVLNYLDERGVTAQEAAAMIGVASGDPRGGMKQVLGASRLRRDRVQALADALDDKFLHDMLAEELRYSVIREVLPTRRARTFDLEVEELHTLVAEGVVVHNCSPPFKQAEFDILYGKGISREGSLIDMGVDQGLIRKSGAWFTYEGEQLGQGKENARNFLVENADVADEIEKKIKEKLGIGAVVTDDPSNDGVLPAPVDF

[4] = target: T2, Replicative DNA helicase DnaB (Mycobacterium tuberculosis, UniProt P9WMR3); assay: DnaB intein splicing inhibitors, dose response, biochemical, cell-free fluorescence (AID 449749); format: functional
T2 sequence (P9WMR3 whole entry): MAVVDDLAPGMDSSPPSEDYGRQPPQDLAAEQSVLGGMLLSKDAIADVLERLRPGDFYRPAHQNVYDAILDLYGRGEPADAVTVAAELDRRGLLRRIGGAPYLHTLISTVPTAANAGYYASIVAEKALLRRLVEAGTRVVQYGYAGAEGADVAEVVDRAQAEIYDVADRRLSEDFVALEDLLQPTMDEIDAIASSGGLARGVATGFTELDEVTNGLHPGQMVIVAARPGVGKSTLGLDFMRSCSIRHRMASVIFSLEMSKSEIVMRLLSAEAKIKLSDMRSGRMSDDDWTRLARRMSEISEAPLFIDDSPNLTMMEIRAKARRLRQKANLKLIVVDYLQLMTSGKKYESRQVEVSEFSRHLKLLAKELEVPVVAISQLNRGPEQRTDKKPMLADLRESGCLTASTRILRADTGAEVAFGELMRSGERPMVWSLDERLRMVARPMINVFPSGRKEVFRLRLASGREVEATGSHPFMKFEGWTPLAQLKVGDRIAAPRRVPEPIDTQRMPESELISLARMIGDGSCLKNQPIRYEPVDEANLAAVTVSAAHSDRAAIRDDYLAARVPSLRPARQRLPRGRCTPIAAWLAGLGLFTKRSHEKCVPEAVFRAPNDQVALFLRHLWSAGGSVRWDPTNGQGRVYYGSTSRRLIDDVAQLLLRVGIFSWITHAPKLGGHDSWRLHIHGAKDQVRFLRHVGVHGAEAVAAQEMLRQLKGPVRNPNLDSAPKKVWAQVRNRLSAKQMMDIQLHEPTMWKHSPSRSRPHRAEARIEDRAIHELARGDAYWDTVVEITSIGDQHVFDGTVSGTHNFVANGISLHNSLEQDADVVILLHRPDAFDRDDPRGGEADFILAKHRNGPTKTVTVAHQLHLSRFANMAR

Genome polyprotein = Genome polyprotein (dengue virus type 2, UniProt P29990); assay: Dengue-2 NS5 methyltransferase inhibitors, primary screen, biochemical, confirmation dose response (AID 588689); format: functional
Chain of Genome polyprotein (P29990 2492-3391 limits assumed): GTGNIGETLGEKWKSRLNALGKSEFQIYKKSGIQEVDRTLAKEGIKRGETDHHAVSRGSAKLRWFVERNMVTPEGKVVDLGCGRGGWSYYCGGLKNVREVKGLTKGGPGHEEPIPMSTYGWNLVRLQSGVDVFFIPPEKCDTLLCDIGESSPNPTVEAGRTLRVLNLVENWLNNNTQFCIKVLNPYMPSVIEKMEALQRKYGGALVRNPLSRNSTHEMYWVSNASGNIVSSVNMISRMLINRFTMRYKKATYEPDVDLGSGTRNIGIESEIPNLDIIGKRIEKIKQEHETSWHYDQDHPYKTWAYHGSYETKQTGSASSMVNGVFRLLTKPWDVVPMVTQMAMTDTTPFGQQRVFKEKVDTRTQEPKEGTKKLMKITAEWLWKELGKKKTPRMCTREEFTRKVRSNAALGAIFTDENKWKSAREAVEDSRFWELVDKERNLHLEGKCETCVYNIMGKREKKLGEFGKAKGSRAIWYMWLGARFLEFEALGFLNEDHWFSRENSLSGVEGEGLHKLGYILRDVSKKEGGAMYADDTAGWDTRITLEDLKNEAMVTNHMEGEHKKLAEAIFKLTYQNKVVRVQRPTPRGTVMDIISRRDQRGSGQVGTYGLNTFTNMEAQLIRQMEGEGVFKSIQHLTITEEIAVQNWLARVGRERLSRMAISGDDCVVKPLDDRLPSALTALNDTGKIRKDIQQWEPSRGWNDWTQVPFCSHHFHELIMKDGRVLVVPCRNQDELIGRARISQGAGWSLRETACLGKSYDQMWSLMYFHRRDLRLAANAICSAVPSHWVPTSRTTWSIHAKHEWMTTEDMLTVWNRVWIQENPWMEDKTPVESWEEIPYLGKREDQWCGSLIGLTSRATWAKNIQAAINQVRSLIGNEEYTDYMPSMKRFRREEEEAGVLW

[5] = target: T3, Polyadenylate-binding protein 1 (Homo sapiens, UniProt P11940); assay: PABP1 MLLE–PAM2 interaction inhibitors, dose response, miRNA deadenylation inhibitor project, biochemical, fluorescence polarization, Cy5-PAM2 peptide, secondary (AID 602260); format: functional; conditions: read-out: IC50_Mean
T3 sequence (P11940 whole entry): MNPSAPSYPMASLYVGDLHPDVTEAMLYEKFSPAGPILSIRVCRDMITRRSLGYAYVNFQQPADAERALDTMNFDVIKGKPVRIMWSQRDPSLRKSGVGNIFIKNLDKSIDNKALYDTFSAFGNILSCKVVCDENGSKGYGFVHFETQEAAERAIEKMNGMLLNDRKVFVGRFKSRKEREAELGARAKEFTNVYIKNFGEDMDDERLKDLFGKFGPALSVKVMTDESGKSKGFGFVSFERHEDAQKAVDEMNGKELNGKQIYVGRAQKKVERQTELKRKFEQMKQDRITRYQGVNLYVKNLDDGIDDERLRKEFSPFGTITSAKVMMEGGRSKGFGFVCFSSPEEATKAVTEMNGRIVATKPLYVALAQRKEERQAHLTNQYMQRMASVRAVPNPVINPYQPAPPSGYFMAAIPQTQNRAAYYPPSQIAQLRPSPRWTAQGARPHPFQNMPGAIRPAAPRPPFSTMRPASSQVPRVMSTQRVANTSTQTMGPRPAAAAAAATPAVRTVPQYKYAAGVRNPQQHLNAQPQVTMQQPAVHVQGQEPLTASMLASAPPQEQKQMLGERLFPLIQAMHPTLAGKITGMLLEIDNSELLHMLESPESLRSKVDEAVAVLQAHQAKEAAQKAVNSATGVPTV

[6] = target: T4, Tyrosyl-DNA phosphodiesterase 2 (Homo sapiens, UniProt O95551); assay: human TDP2 enzyme inhibitors, dose response, biochemical, epi absorbance, IC50 (AID 743297)
T4 sequence (O95551 whole entry): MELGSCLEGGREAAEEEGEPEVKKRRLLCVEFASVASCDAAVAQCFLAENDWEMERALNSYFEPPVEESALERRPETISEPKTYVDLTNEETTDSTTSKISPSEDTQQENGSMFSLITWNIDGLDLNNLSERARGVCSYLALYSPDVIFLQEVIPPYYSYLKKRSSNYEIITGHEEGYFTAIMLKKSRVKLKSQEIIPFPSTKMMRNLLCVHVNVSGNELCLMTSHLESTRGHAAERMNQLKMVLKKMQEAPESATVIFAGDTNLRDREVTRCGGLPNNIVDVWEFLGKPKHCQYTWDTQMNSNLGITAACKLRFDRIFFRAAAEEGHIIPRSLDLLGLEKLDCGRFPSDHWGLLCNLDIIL

[7] = target: T3, Polyadenylate-binding protein 1; assay: PABP1 MLLE–PAM2 binding inhibitor potency, dose response, biochemical, fluorescence polarization, FITC-PAM2 peptide (AID 602259); format: functional; conditions: read-out: IC50_Mean
[8] = inhibitors of PGC1a acetylation in cells, dose response, cell-based, cherry-picked samples (AID 720514); format: functional;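 also: potency may reflect raised or lowered acetylation signal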
[9] = Vero cell cytotoxicity, dose response, cytotoxicity control for Vif-APOBEC3G degradation inhibitor project, Vero cells (AID 1117358); format: functional; conditions: Human immunodeficiency virus 1, Vero
Streptococcus = assay: Group A Streptococcus viability loss, dose response, counter-screen for streptokinase expression inhibitor project, luminescence, BacTiterGlo (AID 1915); format: functional, organism-based;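 also: potency for reduction of bacterial viability or growth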
[10] = test system: Streptococcus sp. 'group A'; assay: growth inhibition of control SK(-) GAS strain, dose response, counter-screen for streptokinase expression inhibitor project, luminescence, kanamycin, BacTiterGlo, confirmation (AID 1900); format: functional, organism-based
[11] = NIH-3T3 fibroblast cytotoxicity, dose response, cytotoxicity control, cell-based, fluorescence, Alamar Blue, secondary assay (AID 2327); format: functional;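 also: NIH-3T3 mouse fibroblasts cultured with fluconazole at 8 µg/mL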
[12] = target: T5, Apoptotic protease-activating factor 1 (Homo sapiens, UniProt O14727); format: functional
T5 sequence (O14727 whole entry): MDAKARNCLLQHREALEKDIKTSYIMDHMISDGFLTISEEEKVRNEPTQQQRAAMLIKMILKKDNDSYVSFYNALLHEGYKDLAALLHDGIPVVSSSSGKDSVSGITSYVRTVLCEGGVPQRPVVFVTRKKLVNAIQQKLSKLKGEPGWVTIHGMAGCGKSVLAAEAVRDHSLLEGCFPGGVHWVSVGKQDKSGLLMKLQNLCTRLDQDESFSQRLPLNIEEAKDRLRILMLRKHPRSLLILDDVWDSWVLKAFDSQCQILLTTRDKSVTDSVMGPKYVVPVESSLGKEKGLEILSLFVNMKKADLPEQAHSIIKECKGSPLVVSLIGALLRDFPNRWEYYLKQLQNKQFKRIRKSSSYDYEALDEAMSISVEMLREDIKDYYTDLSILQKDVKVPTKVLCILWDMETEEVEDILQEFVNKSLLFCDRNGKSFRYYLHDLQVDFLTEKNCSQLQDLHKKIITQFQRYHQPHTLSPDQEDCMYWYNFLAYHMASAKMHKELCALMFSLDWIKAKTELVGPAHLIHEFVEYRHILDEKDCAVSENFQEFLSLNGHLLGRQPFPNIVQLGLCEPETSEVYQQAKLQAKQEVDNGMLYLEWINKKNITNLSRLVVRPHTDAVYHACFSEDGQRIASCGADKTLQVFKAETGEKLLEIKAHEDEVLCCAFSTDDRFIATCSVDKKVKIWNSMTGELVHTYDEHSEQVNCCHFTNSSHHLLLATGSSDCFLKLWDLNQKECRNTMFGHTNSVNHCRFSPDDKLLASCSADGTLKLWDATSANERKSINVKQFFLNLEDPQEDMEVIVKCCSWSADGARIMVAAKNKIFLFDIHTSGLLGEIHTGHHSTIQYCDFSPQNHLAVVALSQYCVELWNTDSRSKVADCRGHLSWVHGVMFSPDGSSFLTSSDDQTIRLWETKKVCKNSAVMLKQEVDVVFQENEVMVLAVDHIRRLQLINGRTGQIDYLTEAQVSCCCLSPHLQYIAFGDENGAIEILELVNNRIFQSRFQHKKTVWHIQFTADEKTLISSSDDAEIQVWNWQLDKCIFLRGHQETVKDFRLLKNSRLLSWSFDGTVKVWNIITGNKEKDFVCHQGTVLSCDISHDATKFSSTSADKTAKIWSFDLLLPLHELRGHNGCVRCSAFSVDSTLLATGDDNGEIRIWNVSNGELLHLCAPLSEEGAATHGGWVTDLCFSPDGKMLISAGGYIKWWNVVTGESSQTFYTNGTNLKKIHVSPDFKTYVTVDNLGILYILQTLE

Streptokinase A = target: T6, Streptokinase A (Streptococcus pyogenes serotype M1, UniProt P10520); assay: S. pyogenes streptokinase expression inhibitors, potency, dose response, plasminogen activation absorbance, OD405 (AID 1914); format: functional, Streptococcus pyogenes M1 GAS;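 also: secreted streptokinase activity via plasminogen activation per viability signal from cell pellet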
T6 sequence (P10520 whole entry): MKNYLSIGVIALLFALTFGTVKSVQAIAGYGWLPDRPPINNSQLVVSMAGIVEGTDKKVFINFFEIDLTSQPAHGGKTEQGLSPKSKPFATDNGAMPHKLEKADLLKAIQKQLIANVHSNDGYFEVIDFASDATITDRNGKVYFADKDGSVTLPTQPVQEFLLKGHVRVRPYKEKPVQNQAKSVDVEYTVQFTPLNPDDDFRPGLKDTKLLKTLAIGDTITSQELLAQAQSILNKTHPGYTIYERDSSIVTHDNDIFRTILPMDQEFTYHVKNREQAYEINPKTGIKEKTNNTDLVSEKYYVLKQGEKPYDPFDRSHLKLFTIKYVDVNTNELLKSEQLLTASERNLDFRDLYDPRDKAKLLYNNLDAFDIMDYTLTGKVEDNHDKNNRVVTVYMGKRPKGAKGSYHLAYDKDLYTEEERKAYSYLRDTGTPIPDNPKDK

[13] = C. albicans growth with fluconazole, confirmation, fluorescence, retest (AID 2467); format: functional, cell-based

Chain of Paired box protein Pax-8 (Q06710 whole entry): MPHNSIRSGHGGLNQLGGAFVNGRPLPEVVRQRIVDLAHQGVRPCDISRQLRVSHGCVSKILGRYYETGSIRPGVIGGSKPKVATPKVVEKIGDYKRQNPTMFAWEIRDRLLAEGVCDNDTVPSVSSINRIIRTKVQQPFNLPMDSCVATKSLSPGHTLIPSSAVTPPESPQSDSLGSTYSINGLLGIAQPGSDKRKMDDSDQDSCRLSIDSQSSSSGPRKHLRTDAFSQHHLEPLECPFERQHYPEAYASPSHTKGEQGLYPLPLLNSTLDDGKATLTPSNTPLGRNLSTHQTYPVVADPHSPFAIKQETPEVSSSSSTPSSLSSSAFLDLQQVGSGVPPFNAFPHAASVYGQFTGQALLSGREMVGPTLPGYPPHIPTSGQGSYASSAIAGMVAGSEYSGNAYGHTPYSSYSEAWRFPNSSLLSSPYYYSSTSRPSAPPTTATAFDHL

C[C@@H]1CCCCO[C@@H](CN(C)Cc2ccc(Cl)c(Cl)c2)[C@H](C)CN([C@H](C)CO)C(=O)c2cc(NC(=O)c3ccccc3)ccc2O1
AC50 (Paired box protein Pax-8): 14 µM (active)
AC50 [1]: 33.8 µM (active)
AC50 [2]: 3.16 µM (active)
AC50 [3]: 27.5 µM (active)

Cc1[nH]n(-c2ccccc2)c(=O)c1C(c1ccc(C(=O)O)cc1)c1c(C)[nH]n(-c2ccccc2)c1=O
EC50 (Protein RecA): 0.656 µM (active)
AC50 [4]: 0.915 µM (active)
IC50 (Genome polyprotein): 20.9 µM (active)
IC50 [5]: > 66 µM (inactive)
IC50 [6]: > 0.528 µM (active)
IC50 [7]: > 66 µM (inactive)

O=C(Nc1cccc(F)c1)N1CC(=O)N2[C@@H](CO)[C@@H](c3ccc(C#Cc4cccnc4)cc3)[C@@H]2C1
AC50 [8]: 4.54 µM (active)

O=C(CCNS(=O)(=O)c1ccc(Cl)cc1)NCc1cccnc1
CC50 [9]: > 40 µM (active)

Oc1c(Br)cc(Br)cc1CNc1cccc2cccnc12
EC50 (Streptococcus): 9.25 µM (active)
EC50 [10]: 6.08 µM (active)
EC50 [11]: 101 µM (active)
IC50 [12]: 40.2 µM (active)
EC50 (Streptokinase A): > 150 µM (not active)
IC50 [6]: > 128 µM (inactive)
EC50 [13]: > 38 µM (not active)
